# Results from ChEMBL document CHEMBL4303087, “Broad anti-coronaviral activity of FDA approved drugs against SARS-CoV-2 in vitro and SARS-CoV in vivo” (2020).
# Where “and” joins values, the source holds several entries; their conditions need not be identical. Equal entries are not always repeated. Structures can show the parent of a compound that is named as a salt. Calls of active or inactive are those of the source. The calls are words filed in the database; no cut-off is given here.
# Tests used:
# [1] = system: Vero C1008; details: chlorocebus sabaeus, vero c1008, 72 h
# [2] = system: SARS-CoV-2; assay: microbe, parasite or virus in culture; assay type: functional, organism-based, Chlorocebus sabaeus, Vero C1008
# [3] = system: SARS-CoV-2; assay: microbe, parasite or virus in culture; assay type: functional, organism-based, Chlorocebus sabaeus, Vero C1008; remark: listed apart in the source
# [4] = in vitro; details: monkey, Vero E6 cells, Selectivity index
# [5] = in vitro; details: monkey, Vero E6 cells, Selectivity index; remark: listed apart in the source
# [6] = system: SARS-CoV; assay: Reduction of SARS spike protein-mediated cell fusion using BlaM pseudovirus assay system in BSC1 cells; assay type: functional, Chlorocebus aethiops, BSC-1
# [7] = system: SARS-CoV-2; assay: Reduction of viral mRNA (RdRp and N) in SARS-CoV-2 infected Vero E6 cells (at MOI 0.1) after 24 hrs; assay type: functional, organism-based; details: Chlorocebus sabaeus; Vero C1008
# [8] = system: SARS-CoV-2; assay: Reduction of SARS-CoV-2 infection by time of addition assay, with 50uM hydroxychloroquine administered at -2hrs, 0 hrs and 2hrs post-infection; assay type: functional, organism-based; details: Chlorocebus sabaeus, Vero C1008
# [9] = Severe acute respiratory syndrome coronavirus 2, Vero C1008, 72 h
Structure (SMILES),CC50 [1],"IC50 [2, 9]","IC50 [3, 9]",selectivity ratio [4],selectivity ratio [5],other results
O=C1NCN(c2ccccc2)C12CCN(CCCC(c1ccc(F)cc1)c1ccc(F)cc1)CC2,30.3 µM,3.16 µM,5.32 µM,5.71,9.61,
CCN(CC)Cc1cc(Nc2ccnc3cc(Cl)ccc23)ccc1O [AMODIAQUINE HYDROCHLORIDE],,2.59 µM,4.94 µM,6.97,13.3,CC50 ([1]; 72 h): 34.4 µM and > 38.6 µM; IC50 ([2]; vero c1008): 2.36 µM; IC50 ([3]; vero c1008): 5.64 µM
CCN(CC)CCCC(C)Nc1ccnc2cc(Cl)ccc12.O=P(O)(O)O.O=P(O)(O)O (stereo not drawn) [CHLOROQUINE PHOSPHATE],,42 µM,46.8 µM,,,Inhibition [6]: >90%; Activity [7]: Active
CN(C)CCCN1c2ccccc2Sc2ccc(Cl)cc21.Cl [CHLORPROMAZINE HYDROCHLORIDE],11.9 µM,3.14 µM,4.03 µM,,,Inhibition [6]: >90%
CC[C@H]1CN2CCc3cc(OC)c(OC)cc3[C@@H]2C[C@@H]1C[C@H]1NCCc2cc(OC)c(OC)cc21 [EMETINE DIHYDROCHLORIDE HYDRATE],< 0.39 µM,,,,,
Nc1ccn([C@@H]2O[C@H](CO)[C@@H](O)C2(F)F)c(=O)n1 [GEMCITABINE HYDROCHLORIDE],23.2 µM,,,,,
CCN(CCO)CCCC(C)Nc1ccnc2cc(Cl)ccc12 (stereo not drawn) [HYDROXYCHLOROQUINE SULFATE],> 50 µM,9.21 µM,11.2 µM,> 4.48,> 5.43,Activity ([8]; time 0.0 hr): Active; Activity ([8]; time 2.0 hr): Active; Activity ([8]; time -2.0 hr): Active; Activity [7]: Active
Cc1ccc(NC(=O)c2ccc(CN3CCN(C)CC3)cc2)cc1Nc1nccc(-c2cccnc2)n1 [IMATINIB MESYLATE],> 30.9 µM,,,,,
OC(c1cc(C(F)(F)F)nc2c(C(F)(F)F)cccc12)C1CCCCN1 (stereo not drawn) [MEFLOQUINE HYDROCHLORIDE],18.5 µM,7.11 µM,8.06 µM,2.3,2.61,
CC(CN1c2ccccc2Sc2ccccc21)N(C)C (stereo not drawn) [PROMETHAZINE HYDROCHLORIDE],> 42.6 µM,9.21 µM,10.4 µM,> 4.08,> 4.62,
CC/C(=C(\c1ccccc1)c1ccc(OCCN(C)C)cc1)c1ccccc1 [TAMOXIFEN CITRATE],38 µM,,,,,
CC(C)N1CCN(c2ccc(OCC3COC(Cn4cncn4)(c4ccc(Cl)cc4Cl)O3)cc2)CC1 (stereo not drawn) [TERCONAZOLE],41.5 µM,11.9 µM,16.1 µM,2.57,3.48,
CCSc1ccc2c(c1)N(CCCN1CCN(C)CC1)c1ccccc1S2 [THIETHYLPERAZINE MALEATE],18.4 µM,7.09 µM,8.02 µM,2.29,2.59,
CN(C)CCOc1ccc(/C(=C(/CCCl)c2ccccc2)c2ccccc2)cc1 [TOREMIFENE CITRATE],20.5 µM,4.77 µM,11.3 µM,1.81,4.3,
CCN(CC)CCOc1ccc(C(O)(Cc2ccc(Cl)cc2)c2ccc(C)cc2)cc1 (stereo not drawn) [TRIPARANOL],21.2 µM,4.68 µM,6.41 µM,3.31,4.53,
